According to patent US10576049B1, “Composition for improving function of aortic endothelial cell and use thereof” (XI'AN JIAOTONG UNIVERSITY, priority 2018, dated 2020):

Columns and labels:
Type in all cases: cell-based
[1] = test system: matrix metalloproteinase-1 (MMP-1) mRNA in human aortic endothelial cells (HAEC); test: MMP-1 mRNA level detection (RT-PCR) in palmitic acid-induced inflammation of human aortic endothelial cells; details: 500 μM palmitic acid 24 h, versus control group, HAEC (FIG. 1)
Procedure: (§2) In each of the three experiment groups, the cells were respectively cultured at an atmosphere of 95% air and 5% CO2 at 37° C. in wells of a 12-well cell culture plate for the following mRNA level detection, and in wells of a 6-well cell culture plate for the following protein detection. After the cell density of the three experiment groups were all cultured to 40% to 50%, the composition was added to the cells of group III. The composition was comprised of the acetic acid, lactic acid, polyoxyethylene castor oil (EL-12), and disodium alkyl polyoxyethylene sulfosuccinate (A-102) in the mass ratio of 1:2.2:1.8:1.5. Different concentrations of the composition were obtained by diluting the composition by adding a solvent having a volume of 20, 100, or 1000 times of the composition. […]
(§3) The detecting of mRNA levels corresponding to interleukin-6 and matrix metalloproteinase-1 was carried out by using reverse transcription RNA and real-time quantitative polymerase chain reaction (PCR), and the specific method is as follows:
(§4) The medium for cell culture in the wells was removed. […] The concentration of the solution was measured by an ultraviolet spectrophotometer. […]

[2] = test system: FoxO1 protein in human aortic endothelial cells; test: Western blot of FoxO1 protein expression in palmitic acid-treated human aortic endothelial cells; details: 500 μM palmitic acid 24 h alone, versus control, HAEC
Procedure: (§1) Human aortic endothelial cells (HAEC) were purchased from Shanghai Baili Biotechnology Co., Ltd. Palmitic acid was purchased from SIGMA Company. The cells were cultured in a constant-temperature, humidified, sterile incubator. The experiments were performed in three experiment groups: I. control; II. 500 μM palmitic acid treatment; and III. composition protecting. In each of the three experiment groups, the cells were respectively cultured at an atmosphere of 95% air and 5% CO2 at 37° C. in wells of a 12-well cell culture plate for the following mRNA level detection, and in wells of a 6-well cell culture plate for the following protein detection. After the cell density of the three experiment groups were all cultured to 40% to 50%, the composition was added to the cells of group III. […] The supernatants were collected, and the proteins therein were quantified by bicinchoninic acid (BCA) assay, and normalized. […] Target proteins were detected by chemiluminescence. Referring to FIG. 1 to FIG. 3, the data obtained in the above-described experiments, for the amount of the mRNA and the proteins, were expressed in the diagrams in form of mean±SEM (SEM is standard error of mean), and the data were analyzed by using One-way ANOVA analysis method with statistical significance p values of * meaning p<0.05, ** meaning p<0.01, *** meaning p<0.001. […]

[3] = test system: interleukin-6 (IL-6) mRNA in human aortic endothelial cells (HAEC); test: IL-6 mRNA level detection (RT-PCR) in palmitic acid-induced inflammation of human aortic endothelial cells; details: 500 μM palmitic acid 24 h, versus control group, HAEC (FIG. 1)
Procedure: as §2, §3, §4

[4] = test system: mitochondrial complex III in human aortic endothelial cells; test: Western blot of mitochondrial complex III expression in palmitic acid-treated human aortic endothelial cells; details: 500 μM palmitic acid 24 h alone, versus control, HAEC, Western blot (FIG. 2A, 2B)
Procedure: as §1

[5] = test system: mitochondrial complex I in human aortic endothelial cells; test: Western blot of mitochondrial complex I expression in palmitic acid-treated human aortic endothelial cells; details: 500 μM palmitic acid 24 h alone, versus control, HAEC, Western blot (FIG. 2A, 2B)
Procedure: as §1

## CCCCCCCCCCCCCCCC(=O)O [palmitic acid]
[1]
  increase of mRNA level corresponding to MMP-1: about 5 times
[2]
  expression of FoxO1: reducing
[3]
  increase of mRNA level corresponding to IL-6: about 12 times
[4]
  expression of mitochondrial complex III: reducing
[5]
  expression of mitochondrial complex I: reducing
